# pIC50: −log10 of the molar value. Counter-ions that a name gives are not always drawn.
# Target: human CXCR3-A receptor (Homo sapiens (Human), UniProt P49682)
# Assay: 125I-CXCL10 competition radioligand binding assay
# Conditions: displacement of 125I-CXCL10 from membranes of CHO cells expressing human recombinant CXCR3-A
# In short: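 Membranes from a recombinant cell line expressing human CXCR3-A (10-20 μg protein) were incubated with 125I-CXCL10 and test compound for 60 min at 25° C, then filtered onto PEI-soaked GF/B filters and gamma-counted. IC50 and Hill slope came from four-parameter nonlinear fitting of competition curves.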
# human CXCR3-A receptor, sequence (P49682 whole entry): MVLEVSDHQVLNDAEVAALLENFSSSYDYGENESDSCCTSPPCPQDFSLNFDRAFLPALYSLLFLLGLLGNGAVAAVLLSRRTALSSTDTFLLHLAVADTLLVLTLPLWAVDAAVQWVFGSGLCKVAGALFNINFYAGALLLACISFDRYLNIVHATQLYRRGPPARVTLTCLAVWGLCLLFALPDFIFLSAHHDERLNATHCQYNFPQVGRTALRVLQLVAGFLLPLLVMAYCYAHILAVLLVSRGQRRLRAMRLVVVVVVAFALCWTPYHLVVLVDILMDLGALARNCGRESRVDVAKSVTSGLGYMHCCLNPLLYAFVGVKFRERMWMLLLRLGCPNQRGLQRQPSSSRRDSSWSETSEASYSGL
row,SMILES,pIC50
1,"CCc1cc(CN(C[C@H]2CC[C@H](C(=O)O)CC2)[C@H]2CCc3c2ccc(Cl)c3F)ccc1OCCN1C(=O)CCC1=O [Example 149, trans-4-[(((S)-5-Chloro-4-fluoro-indan-1-yl)-{4-[2-(2,5-dioxo-pyrrolidin-1-yl)-ethoxy]-3-ethyl-benzyl}-amino)-methyl]-cyclohexanecarboxylic acid]",6.78
2,"Cc1cc(CN([C@H]2C[C@@H](C(=O)O)C2)[C@H](C)c2ccc(Cl)cc2)ccc1OCCN1C(=O)CN(C)C1=O [Example 153, cis-3-([(R)-1-(4-Chloro-phenyl)-ethyl]-{3-methyl-4-[2-(3-methyl-2,5-dioxo-imidazolidin-1-yl)-ethoxy]-benzyl}-amino)-cyclobutanecarboxylic acid]",6.53
3,"COc1cc(CN(C[C@H]2CC[C@H](C(=O)O)CC2)C(C)c2ccc(C(F)(F)F)cc2)ccc1OCCN1C(=O)CCC1=O (stereo partly drawn) [Example 154, trans-4-({{4-[2-(2,5-Dioxo-pyrrolidin-1-yl)-ethoxy]-3-methoxy-benzyl}-[1-(4-trifluoromethyl-phenyl)-ethyl]-amino}-methyl)-cyclohexanecarboxylic acid]",7.15
4,"COc1cc(CN(C[C@H]2CC[C@H](C(=O)O)CC2)[C@H]2CCc3cc(Cl)ccc32)ccc1OCCN1C(=O)[C@H]2CC=CC[C@H]2C1=O [Example 155, trans-4-[(((S)-5-Chloro-indan-1-yl)-{4-[2-((3aS,7aR)-1,3-dioxo-1,3,3a,4,7,7a-hexahydro-isoindol-2-yl)-ethoxy]-3-methoxy-benzyl}-amino)-methyl]-cyclohexanecarboxylic acid; hydrochloride]",5.54
5,"COc1cc(CN(C[C@H]2CC[C@H](C(=O)O)CC2)[C@H]2CCc3cc(Cl)ccc32)ccc1OCCN1C(=O)c2ccccc2C1=O [Example 156, trans-4-[(((S)-5-Chloro-indan-1-yl)-{4-[2-(1,3-dioxo-1,3-dihydro-isoindol-2-yl)-ethoxy]-3-methoxy-benzyl}-amino)-methyl]-cyclohexanecarboxylic acid; hydrochloride]",7.10
6,"Cc1cc(CN(C[C@H]2CC[C@H](C(=O)O)CC2)[C@H]2CCc3c2ccc(Cl)c3F)ccc1OCCN1C(=O)CN(C)C1=O [Example 157, trans-4-[(((S)-5-Chloro-4-fluoro-indan-1-yl)-{3-methyl-4-[2-(3-methyl-2,5-dioxo-imidazolidin-1-yl)-ethoxy]-benzyl}-amino)-methyl]-cyclohexanecarboxylic acid]",7.15
7,"COc1cc(CN(CC2CC(C(=O)O)C2)[C@H]2CCc3cc(Cl)ccc32)ccc1OCCN1C(=O)CCC1=O (stereo partly drawn) [Example 158, 3-[(((S)-5-Chloro-indan-1-yl)-{4-[2-(2,5-dioxo-pyrrolidin-1-yl)-ethoxy]-3-methoxy-benzyl}-amino)-methyl]-cyclobutanecarboxylic acid]",5.97
8,"COc1cc(CN([C@H]2C[C@@H](C(=O)O)C2)[C@H](C)c2ccc3c(c2)CCC3)ccc1OCCn1c(=O)ccn(C)c1=O [Example 159, cis-3-(((R)-1-Indan-5-yl-ethyl)-{3-methoxy-4-[2-(3-methyl-2,6-dioxo-3,6-dihydro-2H-pyrimidin-1-yl)-ethoxy]-benzyl}-amino)-cyclobutanecarboxylic acid]",6.26

# The remaining lines, values ahead:
row,pIC50,SMILES
1,7.01,"COc1cc(CN([C@H]2C[C@@H](C(=O)O)C2)[C@H](C)c2ccc(Cl)c(F)c2)ccc1OCCN1C(=O)CCC1=O [Example 150, cis-3-([(R)-1-(4-Chloro-3-fluoro-phenyl)-ethyl]-{4-[2-(2,5-dioxo-pyrrolidin-1-yl)-ethoxy]-3-methoxy-benzyl}-amino)-cyclobutanecarboxylic acid]"
2,6.34,"CCc1cc(CN([C@H]2C[C@@H](C(=O)O)C2)[C@H](C)c2ccc(Cl)c(F)c2)ccc1OCCN1C(=O)CCC1=O [Example 151, cis-3-([(R)-1-(4-Chloro-3-fluoro-phenyl)-ethyl]-{4-[2-(2,5-dioxo-pyrrolidin-1-yl)-ethoxy]-3-ethyl-benzyl}-amino)-cyclobutanecarboxylic acid]"
3,6.83,"COc1cc(CN([C@H]2C[C@@H](C(=O)O)C2)[C@H](C)c2ccc(Cl)c(Cl)c2)ccc1OCCN1C(=O)CCC1=O [Example 152, cis-3-([(R)-1-(3,4-Dichloro-phenyl)-ethyl]-{4-[2-(2,5-dioxo-pyrrolidin-1-yl)-ethoxy]-3-methoxy-benzyl}-amino)-cyclobutanecarboxylic acid]"

# Same assay, conditions: read-out: % at 10 μM; at 10 μM; displacement of 125I-CXCL10
row,inhibition at 10 µM [%],SMILES
1,26,"COc1cc(CN([C@H]2C[C@H](C(=O)O)C2)[C@H](C)c2ccc3c(c2)CCC3)ccc1OCCn1c(=O)ccn(C)c1=O [Example 160, trans-3-(((R)-1-Indan-5-yl-ethyl)-{3-methoxy-4-[2-(3-methyl-2,6-dioxo-3,6-dihydro-2H-pyrimidin-1-yl)-ethoxy]-benzyl}-amino)-cyclobutanecarboxylic acid]"

# Source: patent US9073853B2, “Cycloalkane carboxylic acid derivatives as CXCR3 receptor antagonists” (Sanofi, priority 2011, dated 2015)
